Assay results reported in the supplement of paper PMC8617591.

Key:
[1] = tested on: Mycobacterium tuberculosis Erdman (autoluminescent); assay: AUC25, normalised area under dose response up to IC25 (three-drug combination) (fraction (0-1)); higher = more potent at low dose
Description: (§1)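 DiaMOND equipotent three-drug combination dose responses (10 doses, 1.5- or 2-fold spacing, centred on IC90) against autoluminescent M. tuberculosis Erdman in 8 in vitro models. Read-out is OD600, or luminescence for the intracellular and dormancy models, normalised to untreated wells. Hill-fit Einf, AUC25 and GRinf are potency metrics; FIC50 and FIC90 are total Loewe fractional inhibitory concentrations as log2 (negative = synergy).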

[2] = tested on: Mycobacterium tuberculosis Erdman (autoluminescent); assay: total FIC50 (Loewe) at 50% inhibition, three-drug combination (log2); higher = more antagonistic
Description: as §1

[3] = tested on: Mycobacterium tuberculosis Erdman (autoluminescent); assay: GRinf, maximum normalised growth rate inhibition (three-drug combination) (unitless (-1 to 1)); higher = less effect (negative = killing)
Description: as §1

[4] = tested on: Mycobacterium tuberculosis Erdman (autoluminescent); assay: total FIC90 (Loewe) at 90% inhibition, three-drug combination (log2); higher = more antagonistic
Description: as §1

[5] = tested on: Mycobacterium tuberculosis Erdman (autoluminescent); assay: Einf, fitted maximum growth inhibition of three-drug combination (fraction); higher = stronger maximal inhibition
Description: as §1

CC(C)/N=c1\cc2n(-c3ccc(Cl)cc3)c3ccccc3nc-2cc1Nc1ccc(Cl)cc1 [clofazimine] + NNC(=O)c1ccncc1 [isoniazid] + COc1c(N2C[C@@H]3CCCN[C@@H]3C2)c(F)cc2c(=O)c(C(=O)O)cn(C3CC3)c12 [moxifloxacin]
Settings	AUC25, [1]	Einf, [5]	GRinf, [3]	total FIC50, [2]	total FIC90, [4]
in vitro model: acidic pH 5.7, time point: constant (~7 days, model-specific)	0.148	0.438	0.301	–	–
in vitro model: acidic pH 5.7, time point: terminal (~4-5 doublings, model-specific)	0.0974	0.923	-0.33	0.581	0.708
in vitro model: intracellular J774, time point: constant = terminal	–	1	-0.424	–	0.642

Settings	AUC25, [1]	Einf, [5]	GRinf, [3]	total FIC50, [2]	total FIC90, [4]
in vitro model: butyrate, time point: constant (~7 days, model-specific)	0.0935	0.949	-0.0926	0.57	1.04
in vitro model: butyrate, time point: terminal (~4-5 doublings, model-specific)	0.0779	0.981	-0.0848	0.531	0.768
in vitro model: cholesterol 0.05 mM, time point: constant (~7 days, model-specific)	0.131	0.707	-0.174	0.411	–
in vitro model: cholesterol 0.05 mM, time point: terminal (~4-5 doublings, model-specific)	0.119	0.919	-0.228	0.344	0.0839
in vitro model: cholesterol-high 0.2 mM, time point: constant (~7 days, model-specific)	0.102	0.943	-0.266	0.253	0.868
in vitro model: cholesterol-high 0.2 mM, time point: terminal (~4-5 doublings, model-specific)	0.0858	1	-0.61	0.464	0.399
in vitro model: dormancy (butyrate + nitrate, low O2), time point: constant (~7 days, model-specific)	0.094	0.929	0.151	0.252	-0.33
in vitro model: dormancy (butyrate + nitrate, low O2), time point: terminal (~4-5 doublings, model-specific)	0.0919	0.988	-0.177	0.0561	1.09
in vitro model: standard 7H9 glycerol, time point: constant = terminal	0.0829	0.977	-0.209	0.374	0.44
in vitro model: valerate, time point: constant (~7 days, model-specific)	0.079	0.84	0.0938	0.474	–
in vitro model: valerate, time point: terminal (~4-5 doublings, model-specific)	0.0672	0.917	0.0935	0.256	0.99

CC(C)/N=c1\cc2n(-c3ccc(Cl)cc3)c3ccccc3nc-2cc1Nc1ccc(Cl)cc1 [clofazimine] + NNC(=O)c1ccncc1 [isoniazid] + NC(=O)c1cnccn1 [pyrazinamide]
Settings	AUC25, [1]	Einf, [5]	GRinf, [3]	total FIC50, [2]	total FIC90, [4]
in vitro model: acidic pH 5.7, time point: constant (~7 days, model-specific)	0.105	0.819	-0.294	0.25	–
in vitro model: acidic pH 5.7, time point: terminal (~4-5 doublings, model-specific)	0.0972	0.977	-0.35	-0.0265	-0.409
in vitro model: intracellular J774, time point: constant = terminal	–	0.964	-0.705	–	0.267

Settings	AUC25, [1]	Einf, [5]	GRinf, [3]	total FIC50, [2]	total FIC90, [4]
in vitro model: butyrate, time point: constant (~7 days, model-specific)	0.112	0.953	-0.112	-0.201	0.915
in vitro model: butyrate, time point: terminal (~4-5 doublings, model-specific)	0.0804	0.968	-0.0686	-0.0738	0.168
in vitro model: cholesterol 0.05 mM, time point: constant (~7 days, model-specific)	0.131	0.74	-0.217	–	–
in vitro model: cholesterol 0.05 mM, time point: terminal (~4-5 doublings, model-specific)	0.132	0.924	-0.252	0.486	–
in vitro model: cholesterol-high 0.2 mM, time point: constant (~7 days, model-specific)	0.0931	0.938	-0.335	0.341	–
in vitro model: cholesterol-high 0.2 mM, time point: terminal (~4-5 doublings, model-specific)	0.0853	0.997	-0.517	0.634	0.384
in vitro model: dormancy (butyrate + nitrate, low O2), time point: constant (~7 days, model-specific)	0.0828	0.88	0.259	-0.675	-0.607
in vitro model: dormancy (butyrate + nitrate, low O2), time point: terminal (~4-5 doublings, model-specific)	0.0727	0.986	-0.174	-0.286	0.161
in vitro model: standard 7H9 glycerol, time point: constant = terminal	0.114	0.942	-0.135	0.447	–
in vitro model: valerate, time point: constant (~7 days, model-specific)	0.119	0.86	0.022	-0.0616	–
in vitro model: valerate, time point: terminal (~4-5 doublings, model-specific)	0.0674	0.933	0.0539	0.187	0.474

CC(C)/N=c1\cc2n(-c3ccc(Cl)cc3)c3ccccc3nc-2cc1Nc1ccc(Cl)cc1 [clofazimine] + NNC(=O)c1ccncc1 [isoniazid] + O=[N+]([O-])c1cn2c(n1)OC[C@@H](OCc1ccc(OC(F)(F)F)cc1)C2 [pretomanid]
Settings	AUC25, [1]	Einf, [5]	GRinf, [3]	total FIC50, [2]	total FIC90, [4]
in vitro model: acidic pH 5.7, time point: constant (~7 days, model-specific)	0.0904	0.772	-0.0866	-0.103	–
in vitro model: acidic pH 5.7, time point: terminal (~4-5 doublings, model-specific)	0.0916	0.963	-0.274	0.278	0.567
in vitro model: intracellular J774, time point: constant = terminal	–	0.976	-0.35	–	0.28

Settings	AUC25, [1]	Einf, [5]	GRinf, [3]	total FIC50, [2]	total FIC90, [4]
in vitro model: butyrate, time point: constant (~7 days, model-specific)	0.106	0.965	-0.205	0.629	1.4
in vitro model: butyrate, time point: terminal (~4-5 doublings, model-specific)	0.0874	0.989	-0.14	0.581	1.02
in vitro model: cholesterol 0.05 mM, time point: constant (~7 days, model-specific)	0.119	0.713	-0.0879	0.824	–
in vitro model: cholesterol 0.05 mM, time point: terminal (~4-5 doublings, model-specific)	0.0944	0.912	-0.156	7.01	0.912
in vitro model: cholesterol-high 0.2 mM, time point: constant (~7 days, model-specific)	0.102	0.971	-0.31	0.301	–
in vitro model: cholesterol-high 0.2 mM, time point: terminal (~4-5 doublings, model-specific)	0.0894	1	-0.709	0.306	0.374
in vitro model: dormancy (butyrate + nitrate, low O2), time point: constant (~7 days, model-specific)	0.0958	0.93	0.217	-0.236	-0.894
in vitro model: dormancy (butyrate + nitrate, low O2), time point: terminal (~4-5 doublings, model-specific)	0.0744	0.987	-0.177	-0.374	-0.0746
in vitro model: standard 7H9 glycerol, time point: constant = terminal	0.116	0.949	-0.229	0.139	0.594
in vitro model: valerate, time point: constant (~7 days, model-specific)	0.15	0.918	-0.199	0.901	2.23
in vitro model: valerate, time point: terminal (~4-5 doublings, model-specific)	0.0945	0.942	-0.0153	0.511	2.01
